Earlier results on 1 molecule are cited in US20240165275A1, “STABLE FORMULATIONS OF INDOCYANINE GREEN” (PROVEPHARM LIFE SOLUTIONS, priority 2021, published 2024).

Structures are written as SMILES.

For data set [1] the following is noted: stored at 4° C. in the dark.
For data set [2] the following is noted: after 10 hours of storage in water and direct light.

In the case of `CC1(C)C(/C=C/C=C/C=C/C=C2\N(CCCCS(=O)(=O)[O-])c3ccc4ccccc4c3C2(C)C)=[N+](CCCCS(=O)(=O)[O-])c2ccc3ccccc3c21.[Na+]` [ICG, Indocyanine green], the stability on storage result in data set [1] is reported as “stable for three days”. The fluorescence intensity lost in data set [1] (three days) is given as 20%. Also, the “reduction of absorbance at spectral peak” value in data set [2] was 10%.
